Assays:
Assay in all cases: Microbial challenge testing in BPW
Type in all cases: cell-based
Aeromonas sp. = settings: 0.2%
Experimental: (§1) The microorganisms used in challenge tests are given in Table 3, designated as either ATCC (American Type Culture Collection) or wild type. These wild type organisms were problematic organisms previously isolated from chemical products. In the description for each organism, the bacteria are indicated as either GN (Gram negative) or GP (Gram positive).
(§2) All of the microorganisms were grown in Tryptose Soy Broth (TSB), DIFCO™ available from Becton, Dickinson and Company, containing 1% dextrose. Aspergillus niger and Candida albicans were incubated at 22° C.±2° C. for at least 96 hours. All bacteria were incubated at 35° C.±2° C. in a humidified incubator for at least 96 hours.
(§3) The following procedure was followed to determine the amount of each challenge material (inoculum broth) required to produce a 10^8 cfu/mL challenge, which is equivalent to a final test-sample microbial concentration of 10^5 to 10^6 cfu (colony-forming units)/mL.
(§4) Using a sterile serological pipette, 1 mL of the growth from each TSB culture was transferred into tubes containing 9 mL phosphate buffer (pH 7.2) and mixed thoroughly. This process was repeated to make serial 1:10 dilutions. Then 0.1 mL of each sample and dilution was inoculated onto agar plates to produce the equivalent of a further 1:10 dilution. C. albicans and A. niger were inoculated onto SDA and bacteria were inoculated onto Plate Count Agar (PCA), DIFCO™ available from Becton, Dickinson and Company. The 0.1 mL aliquots were evenly distributed on the plates using the spread-plate technique. The spread-plate technique is performed by spreading the aliquot over the entire plate surface using a sterile spreading rod while rotating the plate with a rotary auto-plater. After the inoculum was absorbed completely, each plate was inverted and incubated (fungi at 22° C.±2° C. and bacteria at 35° C.±2° C.).
(§5) After incubation for at least 48 hours, colonies that had developed on the agar plates were counted and recorded with the corresponding dilution. If counting had to be delayed temporarily, plates were refrigerated, preferably no more than 24 hours, until they could be counted. The number of cfu/mL was determined by multiplying the count by the dilution factor for that particular plate.
(§6) Turbidity in Nepholemetric Turbidity Units (NTU) was measured for each serial dilution using the HF-Micro 100 Model Turbidimeter. For each microorganism, the plate counts were compared to the turbidity readings.
(§7) Control substrates (“broth alone”) were prepared for each microorganism separately in triplicate by adding 13.5 mL of BPW (pH 7.0) containing 1% (w/v) dextrose to each 20-mL glass tube; then adding 1.5 mL challenge material to produce a final concentration at time zero of 10^5 to 10^6 cfu/mL and a total volume of 15 mL.
(§8) Test sample substrates were prepared containing each test material (1,4-CHDM, etc) or combination of test materials at the concentrations shown in Tables 5 and 6. Sample substrates were prepared in triplicate, except those substrates containing PE or CG which were prepared in duplicate. Substrates were prepared by adding BPW containing 1% (w/v) dextrose to each 20-mL glass tube, then adding the test material in the amount appropriate to achieve the desired weight/volume percent (g/100 mL) and to obtain a total volume of BPW with dextrose and test material of 13.5 mL. Then 1.5 mL challenge material was added to produce a final concentration at time zero of 10^5 to 10^6 cfu/mL of the respective organism and a total test sample substrate volume of 15 mL.
(§9) After mixing, all challenged substrates were incubated at 35° C.±2° C. for 14 days and then at ambient room temperature.

Proteus vulgaris = system: Proteus vulgaris
Experimental: as §1, §2, §3, §4, §5, §6, §7, §8, §9

Pseudomonas aeruginosa = system: Pseudomonas aeruginosa
Experimental: as §1, §2, §3, §4, §5, §6, §7, §8, §9

Streptococcus mutans = system: Streptococcus mutans
Experimental: as §1, §2, §3, §4, §5, §6, §7, §8, §9

Aspergillus niger = system: Aspergillus niger
Experimental: as §1, §2
(§10) Aspergillus niger and Candida albicans were also grown on Sabouraud dextrose agar (SDA) at 22° C.±2° C. for 7 to 14 days or until full sporulation was achieved.
as §3, §4, §5, §6
Aspergillus niger cultures were harvested and spores dislodged from the SDA on which they were grown by rubbing the growth gently with a sterile inoculating loop. The spores were then mixed into the broth culture that had been incubated with a sterile magnetic stir bar to reduce pellicle formation. The spore-culture mixture was filtered repeatedly through sterile, non-absorbent cotton and harvested repeatedly, adjusting vegetative cells and spores to a level of 1.0×10^8. A hemocytometer was used to verify the final challenge concentration.
as §7
(§11) Test sample substrates were prepared containing each test material (1,4-CHDM, etc) or combination of test materials at the concentrations shown in Tables 5 and 6.

Candida albicans = system: Candida albicans
Experimental: as §1, §2, §10, §3, §4, §5, §6
On the day of challenge, the Candida albicans inoculum broth was poured through non-absorbent sterile gauze and centrifuged. The […] was then diluted with phosphate buffer (pH 7.2) until the desired turbidity was reached. Using a hemocytometer, a determination was made whether the challenge contained the desired concentration. Dilutions were made through 1.0×10^8 and three SDA spread plates were inoculated with 0.1 mL of each dilution.
as §7, §11

Question: How did the “Grade code Aeromonas sp” value (Aeromonas sp.; 3 days incubation) turn out when O=c1[nH]sc2ccccc12 [BIT, 1,2-benzisothiazolin-3-one] was run?
Answer: 4 (1001 to 10,000 colonies (thus 10,000 cfu/mL to 100,000 cfu/mL))

Question: And the “Grade code Aeromonas sp” value (Aeromonas sp.; 14 days incubation)?
Answer: 2 (52 to 100 colonies counted (thus 520 to 1000 cfu/mL))

Question: What about the “Grade code Aeromonas sp” value (Aeromonas sp.; 30 days incubation) of the same molecule?
Answer: 2 (52 to 100 colonies counted (thus 520 to 1000 cfu/mL))

Question: What about the “Grade code P. vulqaris” value (Proteus vulgaris; 0.05%, 3 days incubation) of the same molecule?
Answer: 4 (1001 to 10,000 colonies (thus 10,000 cfu/mL to 100,000 cfu/mL))

Question: And the “Grade code P. vulqaris” value (Proteus vulgaris; 0.05%, 13 days incubation)?
Answer: 4 (1001 to 10,000 colonies (thus 10,000 cfu/mL to 100,000 cfu/mL))

Question: And the “Grade code P. vulqaris” value (Proteus vulgaris; 0.05%, 30 days incubation)?
Answer: 4 (1001 to 10,000 colonies (thus 10,000 cfu/mL to 100,000 cfu/mL))

Question: And the “Grade code P. vulqaris” value (Proteus vulgaris; 0.2%, 3 days incubation)?
Answer: 4 (1001 to 10,000 colonies (thus 10,000 cfu/mL to 100,000 cfu/mL))

Question: What about the “Grade code P. vulqaris” value (Proteus vulgaris; 0.2%, 13 days incubation) of the same molecule?
Answer: 2 (52 to 100 colonies counted (thus 520 to 1000 cfu/mL))

Question: What about the “Grade code P. vulqaris” value (Proteus vulgaris; 0.2%, 30 days incubation) of the same molecule?
Answer: 0 (No growth detected or <1 colony (thus <10 cfu/mL))

Question: What about the “Grade code P. aeruginosa” value (Pseudomonas aeruginosa; 0.05%, 3 days incubation) of the same molecule?
Answer: 4 (1001 to 10,000 colonies (thus 10,000 cfu/mL to 100,000 cfu/mL))

Question: And the “Grade code P. aeruginosa” value (Pseudomonas aeruginosa; 0.05%, 13 days incubation)?
Answer: 4 (1001 to 10,000 colonies (thus 10,000 cfu/mL to 100,000 cfu/mL))

Question: And the “Grade code P. aeruginosa” value (Pseudomonas aeruginosa; 0.05%, 30 days incubation)?
Answer: 4 (1001 to 10,000 colonies (thus 10,000 cfu/mL to 100,000 cfu/mL))

Question: And the “Grade code P. aeruginosa” value (Pseudomonas aeruginosa; 0.2%, 3 days incubation)?
Answer: 3 (101 to 1000 colonies (thus 1000 to 10,000 cfu/mL))

Question: And the “Grade code P. aeruginosa” value (Pseudomonas aeruginosa; 0.2%, 13 days incubation)?
Answer: 4 (1001 to 10,000 colonies (thus 10,000 cfu/mL to 100,000 cfu/mL))

Question: What about the “Grade code P. aeruginosa” value (Pseudomonas aeruginosa; 0.2%, 30 days incubation) of the same molecule?
Answer: 4 (1001 to 10,000 colonies (thus 10,000 cfu/mL to 100,000 cfu/mL))

Question: What about the “Grade code S. mutans” value (Streptococcus mutans; 0.05%, 3 days incubation) of the same molecule?
Answer: 1.7

Question: And the “Grade code S. mutans” value (Streptococcus mutans; 0.05%, 13 days incubation)?
Answer: 0 (No growth detected or <1 colony (thus <10 cfu/mL))

Question: And the “Grade code S. mutans” value (Streptococcus mutans; 0.05%, 30 days incubation)?
Answer: 0 (No growth detected or <1 colony (thus <10 cfu/mL))

Question: And the “Grade code S. mutans” value (Streptococcus mutans; 0.2%, 3 days incubation)?
Answer: 0 (No growth detected or <1 colony (thus <10 cfu/mL))

Question: What about the “Grade code S. mutans” value (Streptococcus mutans; 0.2%, 13 days incubation) of the same molecule?
Answer: 0 (No growth detected or <1 colony (thus <10 cfu/mL))

Question: And the “Grade code S. mutans” value (Streptococcus mutans; 0.2%, 30 days incubation)?
Answer: 0 (No growth detected or <1 colony (thus <10 cfu/mL))

Question: What about the “Effectiveness against S. mutans (in words)” value (Streptococcus mutans; BIT alone) of the same molecule?
Answer: highly effective

Question: What about the “Grade code A. niger” value (Aspergillus niger; 0.05%, 3 days incubation) of the same molecule?
Answer: 4

Question: And the “Grade code A. niger” value (Aspergillus niger; 0.05%, 13 days incubation)?
Answer: 4

Question: What about the “Grade code A. niger” value (Aspergillus niger; 0.05%, 30 days incubation) of the same molecule?
Answer: 4

Question: And the “Grade code A. niger” value (Aspergillus niger; 0.2%, 3 days incubation)?
Answer: 4

Question: What about the “Grade code A. niger” value (Aspergillus niger; 0.2%, 13 days incubation) of the same molecule?
Answer: 4

Question: What about the “Grade code A. niger” value (Aspergillus niger; 0.2%, 30 days incubation) of the same molecule?
Answer: 4

Question: What about the “Grade code C. albicans” value (Candida albicans; 0.05%, 3 days incubation) of the same molecule?
Answer: 4 (1001 to 10,000 colonies (thus 10,000 cfu/mL to 100,000 cfu/mL))

Question: And the “Grade code C. albicans” value (Candida albicans; 0.05%, 14 days incubation)?
Answer: 4 (1001 to 10,000 colonies (thus 10,000 cfu/mL to 100,000 cfu/mL))

Question: What about the “Grade code C. albicans” value (Candida albicans; 0.05%, 30 days incubation) of the same molecule?
Answer: 4 (1001 to 10,000 colonies (thus 10,000 cfu/mL to 100,000 cfu/mL))

Question: What about the “Grade code C. albicans” value (Candida albicans; 0.2%, 3 days incubation) of the same molecule?
Answer: 4 (1001 to 10,000 colonies (thus 10,000 cfu/mL to 100,000 cfu/mL))

Question: And the “Grade code C. albicans” value (Candida albicans; 0.2%, 14 days incubation)?
Answer: 3 (101 to 1000 colonies (thus 1000 to 10,000 cfu/mL))

Question: And the “Grade code C. albicans” value (Candida albicans; 0.2%, 30 days incubation)?
Answer: 3 (101 to 1000 colonies (thus 1000 to 10,000 cfu/mL))

Reference: patent publication US20110028566A1, “COMPOSITIONS AND PRODUCTS CONTAINING CYCLOALIPHATIC DIOL ANTIMICROBIAL AGENTS AND METHODS OF USING THE COMPOSITIONS AND PRODUCTS” (EASTMAN CHEMICAL COMPANY, priority 2009, published 2011)
